ChEMBL document CHEMBL1150753, “Antitumor agents, 93. Bruceanol C, a new cytotoxic quassinoid from Brucea antidysenterica” (1988)
Values after ≈ are worked out from the molar mass of the structure shown.

Assays:
Format in all cases: functional
Settings in all cases: read-out: ED50 (the source's name)
[1] = test system: KB; test: Cytotoxicity against human KB cells
[2] = test system: A549; test: Cytotoxicity against human A549 cells
[3] = test system: HCT-8; test: Cytotoxicity against human HCT8 cells
[4] = test system: P388; test: Cytotoxicity against mouse P388 cells

Question: `COC(=O)[C@]12OC[C@]34[C@H]([C@@H](O)[C@@H]1O)[C@@]1(C)[C@H](O)C(=O)C=C(C)[C@@H]1C[C@H]3OC(=O)[C@H](OC(=O)/C=C(\C)C(C)(C)OC(C)=O)[C@@H]24` [Bruceanol C] was tested. Which EC50 [1] did it give?
Answer: < 0.04 µg/mL

Question: What about the EC50 [2] of the same molecule?
Answer: 0.48 µg/mL (≈ 0.791 µM)

Question: And the EC50 [3]?
Answer: < 0.4 µg/mL

Question: What about the EC50 [4] of the same molecule?
Answer: 0.56 µg/mL (≈ 0.923 µM)
